Biological target: eIF3e (Homo sapiens, UniProt P60228)
Assay: isothermal dose-response fingerprint CETSA, western blot
Type: biochemical
Details: MCF7-SIX1 lysate, 10 min at room temperature with compound, heated at 53 °C for 3 min; pH 7.5 Tris, 100 mM NaCl, 1 mM DTT

Sequence of eIF3e (P60228 2-445): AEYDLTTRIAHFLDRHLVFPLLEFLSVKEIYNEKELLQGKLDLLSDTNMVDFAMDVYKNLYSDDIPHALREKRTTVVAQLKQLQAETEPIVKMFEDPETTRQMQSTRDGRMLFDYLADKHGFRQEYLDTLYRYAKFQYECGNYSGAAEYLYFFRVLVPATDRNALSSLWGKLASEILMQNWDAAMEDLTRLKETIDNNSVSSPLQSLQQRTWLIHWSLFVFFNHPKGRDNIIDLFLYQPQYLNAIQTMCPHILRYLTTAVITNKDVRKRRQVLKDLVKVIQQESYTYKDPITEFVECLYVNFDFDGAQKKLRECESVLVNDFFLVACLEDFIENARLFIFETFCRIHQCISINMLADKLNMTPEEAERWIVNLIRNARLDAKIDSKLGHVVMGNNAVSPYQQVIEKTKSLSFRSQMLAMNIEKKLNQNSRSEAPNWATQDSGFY

`COc1ccc(NC(=O)c2cccc(-n3cccc3)c2)cc1S(=O)(=O)N1CCOCC1` [compound 8430, NCGC00378430] showed an EC50 of 13.6 µM.

Source: PMC12822916 (Cell reports, 2025)
